Reference: patent EP0252983B1, “SALTS OF N-(VINYLOXIETHYL)DITHIOCARBAMIC ACID, METHOD OF OBTAINING THEREOF AND […] ON THEM” (priority 1985, dated 1987)
Like-named read-outs stand apart in the source and are kept apart here.

Assays:
Larven von Fichtenböcken = test: Insecticidal activity, topical application to larvae; type: in vivo, Fichtenböcke; conditions: 10%ige Lösung
From the text: Die hohe insektizide Aktivität von Kalium-N-(vinyloxyathyl)dithiocarbamat und Zink-bis-(N-vinyloxyathyl- dithiocarbamat) wurde in Versuchen an Larven von Fichtenböcken nachgewiesen. Geprüft wurden die 10%igen wäßrigen (oder alkoholischen) Lösungen, welche auf die Kopfbrust von Larven aufgebracht wurden. In Versuchen standen je 20 Larven zur Verfügung. Die Versuche wurden dreimal wiederholt. Die Mortalität wurde nach 1, 24 und 48 Stunden ermittelt. Die insektizide Aktivität der erfindungsgemäßen Stoffe ist bedeutend höher als die von Chlorophos.
Die Prüfungen auf insektizide Aktivität werden an Larven von Fichtenböcken durchgeführt. Geprüft werden eine 10%ige wäßrige Lösung von Kalium-N-(vinyloxyäthyl)dithiocarbamat und eine 10%ige alkoholische Lösung von Zink-bis-N-(vinyloxyathyldithiocarbamat). In jedem Versuch stehen je 20 Larven zur Verfügung. Die Mortalität wird nach 1, 24 und 48 Stunden ermittelt. Die zu prüfenden Lösungen werden auf die Kopfbrust von Larven aufgebracht.

Walrotiela subiculesa = test: Mycelial growth inhibition on agar (contact activity); type: cell-based; conditions: 120 h, Würzeagar, read-out: Myzelhemmung in %
Description: (§1) Die Prüfungen werden nach dem Verfahren zur Ermittlung der Kontaktaktivität durchgeführt. Man verwendet das in Wasser gelöste Kalium-N-(vinyloxyäthyl)dithiocarbamat, führt es in ein Nährmedium ein und vergießt auf Petri-Schalen. Nach 24 Stunden wird mit Pilzmyzelium nach einem Stichverfahren geimpft. Dann temperiert man die Schalen innerhalb von 5 Tagen bei einer zwischen 24 und 26 °C liegenden Temperatur und mißt den Durchmesser von Pilzkolonien, ermittelt den Prozentsatz der Hemmung des Myzelwachstums (S) ausgehend von Angaben am 5. Tag nach der Abbott-Formel [drawing 13] worin dc für den Durchmesser der Pilzkolonien, de für den Durchmesser von Pilzkolonien in der Schale stehen, wo ein die zu prüfenden Stoffe enthaltendes Medium vorhanden ist. Dieses Verfahren zur Ermittlung der mikrobiologischen Aktivität ist in anderen Beispielen verwendet.
(§2) Die Pilzkulturen werden auf Würzeagar gezüchtet. Ergebnisse, erhalten bei der Prüfung der fungiziden Aktivität gegen reine Kulturen von Mikroorganismen, welche Bioschädigungen hervorrufen, sind in der Tabelle 1 dargestellt.

Penicillium charlesii = test: as above; type: cell-based; conditions: Penicillium charlesii, 120 h, Würzeagar, read-out: Myzelhemmung in %
Description: as §1, §2

Acremonium charticola [1] = test: as above; type: cell-based; conditions: Acremonium charticola, 120 h, Würzeagar, read-out: Myzelhemmung in %
Description: as §1, §2

Oidium Sp. = test: as above; type: cell-based; conditions: Würzeagar
Description: as §1, §2

[2] = test system: Cladosporium cladosporioides; test: as above; type: cell-based; conditions: Cladosporium cladosporioides, 120 h, Würzeagar, read-out: Myzelhemmung in %
Description: as §1, §2

Penicillium chrysogenum = test: as above; type: cell-based; conditions: Würzeagar
Description: as §1, §2

Geotrichum candidum Link = test: as above; type: cell-based; conditions: Würzeagar
Description: as §1, §2

Cladosporium resinae = test: as above; type: cell-based; conditions: Amorphotheca resinae, 120 h, Würzeagar, read-out: Myzelhemmung in %
Description: as §1, §2

Acremonium cowum = test: as above; type: cell-based; conditions: 120 h, Würzeagar, read-out: Myzelhemmung in %
Description: as §1, §2

Acremonium charticola [3] = test: as above; type: cell-based; conditions: Acremonium charticola, 120 h; Präparatkonzentration 0,0015 %; Würzeagar; read-out: Myzelhemmung in %
[4] = test system: Cladosporium cladosporioides; test: as above; type: cell-based; conditions: Cladosporium cladosporioides, 120 h; Präparatkonzentration 0,006 %; Würzeagar; read-out: Myzelhemmung in %
Aspergillus niger = test: as above; type: cell-based; conditions: Aspergillus niger, 120 h; for inhibition of growth at 0.003 %: Wirkstoffkonzentration 0,003 %
Helminthosporium sativum = test: Barley seed dressing against root rot (helminthosporiosis); type: in vivo; conditions: Aufwandmenge von 1 g/kg
Description: Die Aktivität der Verbindung gegen Wurzelfäule (Helminthosporiose) der Gerste wurde unter Laborbedingungen untersucht. Gerstensamen, infiziert mit einer 7 Tage alten Pizkultur Helminthosporium sativum, wurden durch Präparaten ausgehend von 1 g Präparat (bezogen auf den Wirkstoff) je 1 kg Samen nach einem halbtrockenen Verfahren gebeizt, in Aufzuchträume mit befeuchtetem Sand gesät und innerhalb von 11 bis 14 Tagen bei einer zwischen 20 und 22 °C gehalten. Am 14 Tag schätzte man die Keimfähigkeit von Gerstensamen ein und ermittelte die Quote von durch Helminthosporiose befallenen Pflanzen. Die Prüfergebnisse sind in der Tabelle 4 dargestellt.

For `C=COCCNC(=S)S` [Kalium-N-(vinyloxyäthyl)dithiocarbamat], the “Mortalität von Larven der Fichtenböcke” value (Larven von Fichtenböcken; Wirkungsdauer 1 Stunde) was 20%, the “Mortalität von Larven der Fichtenböcke” value (Larven von Fichtenböcken; Wirkungsdauer 24 Stunden) was 100% and the “Mortalität von Larven der Fichtenböcke” value (Larven von Fichtenböcken; Wirkungsdauer 48 Stunden) was 100%. For the same molecule, the inhibition of growth at 0.0015 % (Walrotiela subiculesa; Präparatkonzentration 0,0015 %) was 100%, the inhibition of growth at 0.003 % (Walrotiela subiculesa; Präparatkonzentration 0,003 %) was 100% and the inhibition of growth at 0.006 % (Walrotiela subiculesa; Präparatkonzentration 0,006 %) was 100%. It also gave an inhibition of growth at 0.012 % (Walrotiela subiculesa; Präparatkonzentration 0,012 %) of 100%, an inhibition of growth at 0.0015 % (Penicillium charlesii; Präparatkonzentration 0,0015 %) of 30% and an inhibition of growth at 0.003 % (Penicillium charlesii; Präparatkonzentration 0,003 %) of 55%. It also gave an inhibition of growth at 0.006 % (Penicillium charlesii; Präparatkonzentration 0,006 %) of 90%, an inhibition of growth at 0.012 % (Penicillium charlesii; Präparatkonzentration 0,012 %) of 100% and an inhibition of growth at 0.003 % (Acremonium charticola [1]; Präparatkonzentration 0,003 %) of 100%. The inhibition of growth at 0.006 % (Acremonium charticola [1]; Präparatkonzentration 0,006 %) was 100%, the inhibition of growth at 0.012 % (Acremonium charticola [1]; Präparatkonzentration 0,012 %) was 100% and the inhibition of growth at 0.003 % (Oidium Sp.; 120 h, Präparatkonzentration 0,003 %, read-out: Myzelhemmung in %) was 100%. The inhibition of growth at 0.006 % (Oidium Sp.; 120 h, Präparatkonzentration 0,006 %, read-out: Myzelhemmung in %) was 100%, the inhibition of growth at 0.012 % (Oidium Sp.; 120 h, Präparatkonzentration 0,012 %, read-out: Myzelhemmung in %) was 100% and the Myzelhemmung in % (Oidium Sp.; Präparatkonzentration 0,0015 %) was 96%. The inhibition of growth at 0.0015 % ([2]; Präparatkonzentration 0,0015 %) was 100%, the inhibition of growth at 0.003 % ([2]; Präparatkonzentration 0,003 %) was 100% and the inhibition of growth at 0.012 % ([2]; Präparatkonzentration 0,012 %) was 100%. For the same molecule, the inhibition of growth at 0.003 % (Penicillium chrysogenum; Penicillium chrysogenum, 120 h, Präparatkonzentration 0,003 %, read-out: Myzelhemmung in %) was 26%, the inhibition of growth at 0.006 % (Penicillium chrysogenum; Penicillium chrysogenum, 120 h, Präparatkonzentration 0,006 %, read-out: Myzelhemmung in %) was 93% and the inhibition of growth at 0.012 % (Penicillium chrysogenum; Penicillium chrysogenum, 120 h, Präparatkonzentration 0,012 %, read-out: Myzelhemmung in %) was 100%. For the same molecule, the Myzelhemmung in % (Penicillium chrysogenum; Präparatkonzentration 0,0015 %) was 15%, the inhibition of growth at 0.012 % (Geotrichum candidum Link; Geotrichum candidum, 120 h, Präparatkonzentration 0,012 %, read-out: Myzelhemmung in %) was 100% and the Myzelhemmung in % (Geotrichum candidum Link; Präparatkonzentration 0,0015 %) was 30%. It also gave a Myzelhemmung in % (Geotrichum candidum Link; Präparatkonzentration 0,003 %) of 100%, a Myzelhemmung in % (Geotrichum candidum Link; Präparatkonzentration 0,006 %) of 100% and an inhibition of growth at 0.0015 % (Cladosporium resinae; Präparatkonzentration 0,0015 %) of 100%. The inhibition of growth at 0.003 % (Cladosporium resinae; Präparatkonzentration 0,003 %) was 100%, the inhibition of growth at 0.006 % (Cladosporium resinae; Präparatkonzentration 0,006 %) was 100% and the inhibition of growth at 0.012 % (Cladosporium resinae; Präparatkonzentration 0,012 %) was 100%. For the same molecule, the inhibition of growth at 0.0015 % (Acremonium cowum; Präparatkonzentration 0,0015 %) was 100%, the inhibition of growth at 0.012 % (Acremonium cowum; Präparatkonzentration 0,012 %) was 100% and the inhibition of growth at 0.0015 % (Acremonium charticola [3]) was 100%. It also gave an inhibition of growth at 0.006 % [4] of 100%, an inhibition of growth at 0.01 % (Aspergillus niger; Wirkstoffkonzentration 0,01 %, Kartoffel-Glukose-Nährmedium, read-out: Myzelhemmung in %) of 100% and an inhibition of growth at 0.003 % (Aspergillus niger; Kartoffel-Glukose-Nährmedium, read-out: Myzelhemmung in %) of 100%. The inhibition of growth at 0.003 % (Aspergillus niger; Tabelle 3, read-out: Mycelhemmung, in %) was 100% and the “Wirksamkeit als Beizmittel gegenüber Vergleichsmuster (TMTD und Polykarbazin)” value (Helminthosporium sativum) was “zweimal wirksamer”.
